pEC50: −log10 of the molar value.
What follows are compounds tested against NAMPT enzyme (Homo sapiens (Human), UniProt P43490) (assay: Enzyme Assay and NMN Detection (NAMPT reaction, fluorescence detection of NMN)). Details: Table B-1; NAMPT activation, NMN formation.
Type: biochemical
Method in brief: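 Reaction in 50 mM HEPES pH 7.5, 5 mM MgCl2, 0.1% Prionex, 0.005% Tween 20, 1 mM TCEP at room temperature, with 16 nM NAMPT, 120 uM ATP, 5 uM nicotinamide, 6.25 uM PRPP, 0.04 U/ml pyrophosphatase for 2 h. Stopped with acetophenone/KOH then formic acid; NMN quantified by fluorescence (ex380/em460) against calibration curve.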

Chain of NAMPT enzyme (P43490 whole entry, species assumed): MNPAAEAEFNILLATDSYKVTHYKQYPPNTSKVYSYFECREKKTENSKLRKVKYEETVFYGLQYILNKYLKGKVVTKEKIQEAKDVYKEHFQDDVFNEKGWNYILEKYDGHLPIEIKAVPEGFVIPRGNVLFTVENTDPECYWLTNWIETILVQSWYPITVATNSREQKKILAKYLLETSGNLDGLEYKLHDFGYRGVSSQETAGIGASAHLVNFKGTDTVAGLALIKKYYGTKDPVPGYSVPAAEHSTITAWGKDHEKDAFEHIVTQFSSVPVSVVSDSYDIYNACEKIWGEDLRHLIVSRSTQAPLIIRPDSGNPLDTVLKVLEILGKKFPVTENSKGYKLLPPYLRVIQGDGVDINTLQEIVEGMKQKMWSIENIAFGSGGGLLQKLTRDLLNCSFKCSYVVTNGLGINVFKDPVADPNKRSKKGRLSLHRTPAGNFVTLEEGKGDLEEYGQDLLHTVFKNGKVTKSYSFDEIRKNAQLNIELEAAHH

Compound	pEC50
CCOC(=O)c1ccc(NC(=O)NCc2cnn(C)c2)cc1 [Ethyl 4-(3-((1-methyl-1H-pyrazol-4-yl)methyl)ureido)benzoate]	< 4.70
Cc1noc(C)c1CNC(=O)Nc1ccc(S(=O)(=O)N2CCc3ccccc3C2)cc1 [1-[4-(3,4-Dihydro-1H-isoquinoline-2-sulfonyl)-phenyl]-3-(3,5-dimethyl-isoxazol-4-ylmethyl)-urea]	< 4.70

Continued, values first:

pEC50	Compound
5.70 to 7.00	O=C(NCc1cn[nH]c1)Nc1ccc(C(=O)Nc2ccc(Cl)cc2)cc1 [4-(3-((1H-pyrazol-4-yl)methyl)ureido)-N-(4-chlorophenyl)benzamide]
5.70 to 7.00	O=C(NCc1cn[nH]c1)Nc1ccc(S(=O)(=O)Nc2ccccc2)cc1 [N-Phenyl-4-[3-(1H-pyrazol-4-ylmethyl)-ureido]-benzenesulfonamide]
> 7.00	O=C(NCc1cn[nH]c1)Nc1ccc(S(=O)(=O)c2cccc(Cl)c2)cc1 [1-[4-(3-Chloro-benzenesulfonyl)-phenyl]-3-(1H-pyrazol-4-ylmethyl)-urea]

Same assay, conditions: Table B-2; NAMPT activation, NMN formation

Compound	pEC50
O=C(NCc1ccncc1)Nc1ccc(C(=O)N2CCCC2)cc1 [1-(Pyridin-4-ylmethyl)-3-(4-(pyrrolidine-1-carbonyl)phenyl)urea]	4.70 to 5.30
CC(C)N(Cc1ccccc1)S(=O)(=O)c1ccc(NC(=O)NCc2ccncc2)cc1 [N-Benzyl-N-isopropyl-4-(3-pyridin-4-ylmethyl-ureido)-benzenesulfonamide]	> 7.00
CCOC(=O)c1ccc(NC(=O)NCc2ccnc(F)c2)cc1 [Ethyl 4-(3-((2-fluoropyridin-4-yl)methyl)ureido)benzoate]	< 4.70
O=C(NCc1ccncc1)Nc1ccc(S(=O)(=O)N2CCc3cccc(C(F)(F)F)c3C2)cc1 [Pyridin-4-ylmethyl-3-[4-(8-trifluoromethyl-3,4-dihydro-1H-isoquinoline-2-sulfonyl)-phenyl]-urea]	5.70 to 7.00
CN(Cc1ccccc1Cl)S(=O)(=O)c1ccc(NC(=O)NCc2ccncc2)cc1 [N-(2-Chloro-benzyl)-N-methyl-4-(3-pyridin-4-ylmethyl-ureido)-benzenesulfonamide]	> 7.00
O=C(NCc1ccncc1)Nc1ccc(S(=O)(=O)N2CCCCC2)cc1 [1-[4-(Piperidine-1-sulfonyl)-phenyl]-3-pyridin-4-ylmethyl-urea]	5.70 to 7.00
O=C(NCc1ccncc1)Nc1ccc(C(=O)Nc2ccccc2Cl)cc1 [N-(2-chlorophenyl)-4-(3-(pyridin-4-ylmethyl)ureido)benzamide]	5.70 to 7.00
O=C(NCc1ccncc1)Nc1ccc(S(=O)(=O)NC2CCCc3ccccc32)cc1 (stereo not drawn) [4-(3-Pyridin-4-ylmethyl-ureido)-N-(1,2,3,4-tetrahydro-naphthalen-1-yl)-benzenesulfonamide]	> 7.00
O=C(NCc1ccncc1)Nc1ccc(S(=O)(=O)N2CCc3ccccc3C2)cc1 [1-[4-(3,4-Dihydro-1H-isoquinoline-2-sulfonyl)-phenyl]-3-pyridin-4-ylmethyl-urea]	5.70 to 7.00
O=C(NCc1ccncc1)Nc1ccc(C(=O)NCCN2CCOCC2)cc1 [N-(2-morpholinoethyl)-4-(3-(pyridin-4-ylmethyl)ureido)benzamide]	5.70 to 7.00
COc1ccc(CNS(=O)(=O)c2ccc(NC(=O)NCc3ccncc3)cc2)cc1 [N-(4-methoxybenzyl)-4-(3-(pyridin-4-ylmethyl)ureido)benzenesulfonamide]	5.70 to 7.00
Cc1ccnc(NS(=O)(=O)c2ccc(NC(=O)NCc3ccncc3)cc2)n1 [N-(4-Methyl-pyrimidin-2-yl)-4-(3-pyridin-4-ylmethyl-ureido)-benzenesulfonamide]	5.70 to 7.00
CN1CCN(S(=O)(=O)c2ccc(NC(=O)NCc3ccncc3)cc2)CC1 [1-[4-(4-Methyl-piperazine-1-sulfonyl)-phenyl]-3-pyridin-4-ylmethyl-urea]	5.70 to 7.00
O=C(NCc1ccncc1)Nc1ccc(S(=O)(=O)NC2CCCCC2)cc1 [N-Cyclohexyl-4-(3-pyridin-4-ylmethyl-ureido)-benzenesulfonamide]	5.70 to 7.00
O=C(NCc1ccncc1)Nc1ccc(S(=O)(=O)Cc2ccccc2)cc1 [1-(4-Phenylmethanesulfonyl-phenyl)-3-pyridin-4-ylmethyl-urea]	5.30 to 5.70
CC(C)NC(=O)c1ccc(NC(=O)NCc2ccncc2)cc1 [N-Isopropyl-4-(3-(pyridin-4-ylmethyl)ureido)benzamide]	5.70 to 7.00
CN(c1ccc(NC(=O)NCc2ccncc2)cc1)S(=O)(=O)c1ccccc1 [N-Methyl-N-[4-(3-pyridin-4-ylmethyl-ureido)-phenyl]-benzenesulfonamide]	5.70 to 7.00
COc1cccc(CNC(=O)c2ccc(NC(=O)NCc3ccncc3)cc2)c1 [N-(3-methoxybenzyl)-4-(3-(pyridin-4-ylmethyl)ureido)benzamide]	< 4.70
CN(C)c1ccccc1CNS(=O)(=O)c1ccc(NC(=O)NCc2ccncc2)cc1 [N-(2-Dimethylamino-benzyl)-4-(3-pyridin-4-ylmethyl-ureido)-benzenesulfonamide]	> 7.00

More lines, now with the values ahead:

pEC50	Compound
5.70 to 7.00	O=C(NCc1ccncc1)Nc1ccc(S(=O)(=O)c2ccc(Cl)cc2)cc1 [1-[4-(4-Chloro-benzenesulfonyl)-phenyl]-3-pyridin-4-ylmethyl-urea]
5.70 to 7.00	O=C(NCc1ccncc1)Nc1ccc(S(=O)(=O)NCC2CC2)cc1 [N-Cyclopropylmethyl-4-(3-pyridin-4-ylmethyl-ureido)-benzenesulfonamide]

Same assay, conditions: Table B-3; NAMPT activation, NMN formation

pEC50	Compound
< 4.70	CCOC(=O)c1ccc(NC(=O)NCc2cccnc2)cc1 [Ethyl 4-(3-(pyridin-3-ylmethyl)ureido)benzoate]
< 4.70	O=C(NCc1ccccn1)Nc1ccc(S(=O)(=O)N2CC3CCC(C2)O3)cc1 [1-[4-(8-Oxa-3-aza-bicyclo[3.2.1]octane-3-sulfonyl)-phenyl]-3-pyridin-2-ylmethyl-urea]
< 4.70	CCOC(=O)c1ccc(NC(=O)NCC2CCNc3ccccc32)cc1 (stereo not drawn) [Ethyl 4-(3-((1,2,3,4-tetrahydroquinolin-4-yl)methyl)ureido)benzoate]

Same assay, conditions: Table B-4; NAMPT activation, NMN formation

pEC50	Compound
5.30 to 5.70	Cc1ccc(-c2csc(Nc3ccc(NC(=O)NCc4cn[nH]c4)cc3)n2)cc1 [1-(1H-Pyrazol-4-ylmethyl)-3-[4-(4-p-tolyl-thiazol-2-ylamino)-phenyl]-urea]
5.70 to 7.00	COc1ccccc1-c1csc(Nc2ccc(NC(=O)NCc3cn[nH]c3)cc2)n1 [1-((1H-Pyrazol-4-yl)methyl)-3-(4-((4-(2-methoxyphenyl)thiazol-2-yl)amino)phenyl)urea]
> 7.00	O=C(NCc1cn[nH]c1)Nc1ccc(S(=O)(=O)c2cc(F)cc(F)c2)cc1 [1-[4-(3,5-Difluoro-benzenesulfonyl)-phenyl]-3-(1H-pyrazol-4-ylmethyl)-urea]
5.70 to 7.00	O=C(NCc1cn[nH]c1)Nc1ccc(S(=O)(=O)c2ccncc2)cc1 [1-((1H-Pyrazol-4-yl)methyl)-3-(4-(pyridin-4-ylsulfonyl)phenyl)urea]
> 7.00	O=C(NCc1cn[nH]c1)Nc1ccc(S(=O)(=O)c2cccc(F)c2)cc1 [1-((1H-Pyrazol-4-yl)methyl)-3-(4-((3-fluorophenyl)sulfonyl)phenyl)urea]
4.70 to 5.30	N#Cc1cccc(-c2ccccc2S(=O)(=O)c2ccc(NC(=O)NCc3cn[nH]c3)cc2)c1 [1-((1H-Pyrazol-4-yl)methyl)-3-(4-((3′-cyano-[1,1′-biphenyl]-2-yl)sulfonyl)phenyl)urea]

Same assay, conditions: Table B-5; NAMPT activation, NMN formation

Compound	pEC50
O=C(NCc1cnco1)Nc1ccc(-c2nc3ccccc3s2)cc1 [1-(4-(Benzo[d]thiazol-2-yl)phenyl)-3-(oxazol-5-ylmethyl)urea]	4.70 to 5.30
O=C(NCc1cnco1)Nc1ccc(Nc2nc3ccccc3s2)cc1 [1-(4-(Benzo[d]thiazol-2-ylamino)phenyl)-3-(oxazol-5-ylmethyl)urea]	4.70 to 5.30
O=C(NCc1cnco1)Nc1ccc(-c2ncc(Cc3ccccc3)s2)cc1 [1-(4-(5-Benzylthiazol-2-yl)phenyl)-3-(oxazol-5-ylmethyl)urea]	4.70 to 5.30
O=C(NCc1cnco1)Nc1ccc(NS(=O)(=O)Cc2ccccc2Cl)cc1 [1-(2-Chlorophenyl)-N-(4-(3-(oxazol-5-ylmethyl)ureido)phenyl)methanesulfonamide]	> 7.00
Cn1nc(-c2ccc(NC(=O)NCc3cnco3)cc2)c2cccnc21 [1-[4-(1-Methyl-1H-pyrazolo[3,4-b]pyridin-3-yl)-phenyl]-3-oxazol-5-ylmethyl-urea]	5.30 to 5.70

Results, then the compound that gave them:

pEC50	Compound
5.70 to 7.00	O=C(NCc1cnco1)Nc1ccc(S(=O)(=O)c2ccc(OC(F)(F)F)cc2)cc1 [1-Oxazol-5-ylmethyl-3-[4-(4-trifluoromethoxy-benzenesulfonyl)-phenyl]-urea]
5.70 to 7.00	COc1ccc(S(=O)(=O)c2ccc(NC(=O)NCc3cnco3)cc2)cn1 [1-[4-(6-Methoxy-pyridine-3-sulfonyl)-phenyl]-3-oxazol-5-ylmethyl-urea]
5.70 to 7.00	CC(C)n1cc(S(=O)(=O)c2ccc(NC(=O)NCc3cnco3)cc2)cn1 [1-[4-(1-Isopropyl-1H-pyrazole-4-sulfonyl)-phenyl]-3-oxazol-5-ylmethyl-urea]

Same assay, conditions: Table B-6; NAMPT activation, NMN formation

Compound	pEC50
O=C(NCc1ccncc1)Nc1ccc(Nc2nc3ccccc3s2)cc1 [1-[4-(Benzothiazol-2-ylamino)-phenyl]-3-pyridin-4-ylmethyl-urea]	4.70 to 5.30
COc1ccccc1CS(=O)(=O)Nc1ccc(NC(=O)NCc2ccncc2)cc1 [C-(2-Methoxy-phenyl)-N-[4-(3-pyridin-4-ylmethyl-ureido)-phenyl]-methanesulfonamide]	5.70 to 7.00
O=C(NCc1ccncc1)Nc1ccc(S(=O)(=O)c2ccccc2-c2ccccc2F)cc1 [1-[4-(2′-Fluoro-biphenyl-2-sulfonyl)-phenyl]-3-pyridin-4-ylmethyl-urea]	> 7.00

The next lines start with the values.

pEC50	Compound
5.70 to 7.00	O=C(NCc1ccncc1)Nc1ccc(S(=O)(=O)c2ccncc2)cc1 [1-(Pyridin-4-ylmethyl)-3-(4-(pyridin-4-ylsulfonyl)phenyl)urea]
5.70 to 7.00	O=C(NCc1ccncc1)Nc1ccc(S(=O)(=O)c2cncs2)cc1 [1-Pyridin-4-ylmethyl)-3-(4-(thiazol-5-ylsulfonyl)phenyl)urea]

Reference: US11452717B2, “Small molecule activators of nicotinamide phosphoribosyltransferase (NAMPT) and uses thereof” (Sanford Burnham Prebys Medical Discovery Institute, priority 2017, dated 2022)
